Results reported in PMC9014415, “Repositioning of a Diaminothiazole Series Confirmed to Target the Cyclin-Dependent Kinase CRK12 for Use in the Treatment of African Animal Trypanosomiasis” (Journal of Medicinal Chemistry, 2022).

Columns and labels:
[1] = PK and formulation studies in Sprague Dawley rats, IM; assay type: in vivo; conditions: rat, single IM 5 mg/kg
Method: 2.4 Protein plasma binding […]
2.6 PK and formulation studies - male Sprague rats
Compound 1 was dosed SC at 5 mg free base/kg (dose volume 0.2 or 1 mL/kg; dose vehicle 10% N-methyl-2- pyrrolidinone (NMP), 30% 2-pyrrolidinone, 40% PEG400, 20% deionized water or 10% DMSO, 30% PEG400 and 60% deionized water, respectively) or IM at 5 and 10 mg free base/kg (dose volume 0.2 mL/kg; dose vehicle 10% NMP, 30% 2-pyrrolidinone, 40% PEG400, 20% deionized water or 83.4% 2-pyrrolidinone/polyvinylpyrrolidone (PVP), 16.6% saline or 80% 2-pyrrolidinone/NMP/PVP, 20% (0.05% 2-propanol in saline) to male SD rats (n=3).
Compound 2 was dosed IV at 3 mg free base/kg (dose volume 1 mL/kg; dose vehicle: 10% DMSO, 40% PEG400 and 50% deionized water) or IM at 5, 10 and 20 mg free base/kg (dose volume 0.2 […]
and 0.4 mL/kg; dose vehicle 10% NMP, 30% 2-pyrrolidinone, 40% PEG400, 20% deionized water or 83.4% 2-pyrrolidinone/polyvinylpyrrolidone (PVP), 16.6% saline or 80% 2-pyrrolidinone/NMP/PVP, 20% 0.05% 2-propanol in saline or 40% 0.3M Acetate Buffer, 20% Kolliphor, 20% glycerol formal, 20% 2-pyrrolidinone or 40% 0.3M Acetate Buffer, 20% glycerol formal, 20% 2-pyrrolidinone) to male SD rats (n=3). […]
Compound 2 was dosed IM at 10 mg free base/kg (dose volume 2 mL/10 kg; dose vehicle 40% 0.3 M Acetate Buffer, 20% Kolliphor EL, 20% glycerol formal, 20% 2-pyrrolidone) or IV at 2 mg free base/kg (dose volume 0.4 mL/10 kg; 40% 0.3 M Acetate Buffer, 20% Kolliphor EL, 20% glycerol formal, 20% 2-pyrrolidone) to male ruminating Holstein-Friesian cross animals (n = 3). Blood samples were taken from each animal using 18-G needles into EDTA (K2) vacutainers before dosing […]
into a cool box containing iced water and were processed within 2 h of collection.
2.8 Formulation and tolerability studies for compound 2 (NorthWest Biopharm) A study to identify alternative formulations was conducted. Compound 2, either as the hydrochloride salt or free base, was screened to identify a 50 mg/mL soluble formulation suitable for injection. […]
Kolliphor EL, N-methyl pyrrolidone, 2-pyrrolidone and 11% water at 5 mg/kg was assessed, IM […]
A screen of salt forms as alternatives to the hydrochloride was carried out at Drugabilis. Ten pharmaceutically acceptable counter ions were assessed and three were selected for further study […]
(citrate, fumarate and phosphate) (Figure 9). These alternative salt forms of compound 2 were prepared and formulated in the best vehicle determined by injection site tolerability analysis (0.3M sodium acetate buffer, Kolliphor EL, N-methyl pyrrolidone, 2-pyrrolidone, and 11% water suitable for injection). […]

[2] = Injection site tolerance in the IM efficacy study in African cattle; assay type: in vivo; conditions: free base in Kolliphor EL, NMP, 2-pyrrolidone, 11% water
Method: Compound 2 was only partially curative for cattle infected with T. congolense following two doses (1/4 and 2/4 in different treatment arms), administered 15 h apart (Table 4, Table S8, and Figure S9a). The curative regimen aligned well with PK/PD data from mice. However, cattle infected with T. vivax and dosed IM were not cured despite the fact that PK data from some T. vivax-infected cattle (Table 4, Table S9, and Figure S9b) predicted that a dosing at this level should have been curative based on mouse data. This lack of efficacy at exposures expected to deliver a cure is even more perplexing when the metabolism of compound 2 is considered. […] The rate and extent of this metabolism is higher in T. vivax-infected animals compared to those infected with T. congolense (Table S10) for reasons that are not clear.

| Structure (SMILES) | Cmax ([1]; male, blood, Sprague Dawley rats, 10% NMP, 30% 2-pyrrolidinone, 40% PEG400, 20% water, mean) [ng/mL] | AUC(0-t) ([1]; male, blood, Sprague Dawley rats, 10% NMP, 30% 2-pyrrolidinone, 40% PEG400, 20% water, mean, read-out: AUC0-8 (converted)) [ng·h/mL] | Time at which free concentration in blood <EC99 ([1]; formulation A: 83.4% PVP/2-pyrrolidone, 16.6% saline) [h] | Time at which free concentration in blood <EC99 ([1]; formulation B: 80% vehicle 1 (NMP:2-pyrrolidone): 20% vehicle 2) [h] | Injection site tolerance [2] |
| --- | --- | --- | --- | --- | --- |
| CC(C)CS(=O)(=O)N[C@H]1CC[C@H](Nc2nc(N)c(C(=O)c3c(F)cccc3F)s2)CC1 [Compound 1, N-((trans)-4-((4-Amino-5-(2,6-difluorobenzoyl)thiazol-2-yl)amino)cyclohexyl)-2-methylpropane-1-sulfonamide] | 92 | 354 | 3 | 4 |  |
| CC(C)CS(=O)(=O)N[C@H]1CC[C@H](Nc2nc(N)c(C(=O)c3c(F)cc(CN(C)C)cc3F)s2)CC1 [Compound 2, N-(trans)-[4-[[4-Amino-5-[4-(dimethylaminomethyl)-2,6-difluoro-benzoyl]thiazol-2-yl]amino]cyclohexyl]-2-methyl-propane-1-sulfonamide] |  |  |  |  | injection site tolerance issues |
